Laboratory results from patent US8580517B2, “Biosensor and use thereof to identify therapeutic drug molecules and molecules binding orphan receptors” (priority 2003, dated 2013).
Entries after “also recorded” stand apart in the source; their conditions may differ.

Legend:
Assay type in all cases: cell-based
[1] = biological target: T1, M2 muscarinic acetylcholine receptors (Homo sapiens, UniProt P08172); assay: G protein biosensor FRET (CY/CC) imaging in CHO cells stably expressing M2 receptor; conditions: for FRET signal intensity on addition of the molecule: 100 μM, α-CFP/β-YFPγ biosensor; for FRET signal intensity on repeated addition of agonist and antagonist: Go biosensor, same cell, repeated additions; for CC emission intensity / CY emission intensity: carbachol 100 μM, then atropine 100 μM
T1 construct: expressed in transfected cells
T1 sequence (P08172 1-466): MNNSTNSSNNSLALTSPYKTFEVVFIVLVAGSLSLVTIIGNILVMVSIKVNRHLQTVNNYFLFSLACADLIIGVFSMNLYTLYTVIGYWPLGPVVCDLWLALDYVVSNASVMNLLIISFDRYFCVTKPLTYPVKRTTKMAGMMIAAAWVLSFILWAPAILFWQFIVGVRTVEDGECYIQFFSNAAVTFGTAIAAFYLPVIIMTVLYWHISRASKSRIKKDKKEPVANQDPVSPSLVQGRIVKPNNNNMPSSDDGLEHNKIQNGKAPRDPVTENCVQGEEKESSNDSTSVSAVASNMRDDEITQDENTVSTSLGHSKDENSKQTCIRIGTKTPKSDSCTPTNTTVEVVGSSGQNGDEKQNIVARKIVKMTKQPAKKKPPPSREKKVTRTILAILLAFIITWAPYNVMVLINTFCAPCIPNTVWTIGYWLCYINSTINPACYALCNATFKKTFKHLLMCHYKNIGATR
Method: All were transferred to pDEST12.2 mammalian expression vectors following the manufacturer's instructions (Invitrogen). […] Competent CHO cells expressing M2 were competently transfected with three pDEST12.2 carrying αo-CFP, β1-YFP and γ5. Stable transfectants were selected with G418 and coexpressors were isolated by flow cytometry and confirmed by differential fluorescence microscopy.
(§1) Microscopy, image acquisition and FRET analysis (i.e. image capture, recording and analysis) were carried out as follows (generally following the illustration in FIG. 3). Cells were seeded on glass coverslips (25 mm #1 from Warner Instruments) in 35 mm dishes and cultured overnight for imaging. Coverslips containing cells were mounted in a perfusion chamber of 0.36 ml internal volume (RC-21BR from Warner Instrument Corporation, 1141 Dixwell Ave., Hamden, Conn. 06514) containing Hank's Buffered Saline Solution (HBSS) supplemented with 10 mM Hepes pH 7.4 and 1 mg glucose/ml. The perfusion chamber was stage-mounted in an upright Zeiss Axioscope fluorescence microscope.
(§2) Agonists, antagonists or a molecule in the HBSS solution were injected manually (or using an automated valve based system driven pneumatically or by gravity) at a rate of about 2 ml/min for 45 seconds through a secondary inlet of the chamber. Images were acquired at the indicated times. Cells were illuminated with a 50 W mercury lamp (or a 100 W mercury lamp) through a 20% neutral density filter. The filter wheels were run by a Sutter Lambda 10-2 device, a high speed excitation filter wheel that utilizes a direct stepper motor. (Sutter Instrument Company, 51 Digital Drive, Novato, Calif. 94949). In an aspect, power to operate instruments such as the microscope, pumps, motor(s), camera(s), computer(s) control system is supplied by 110 volt electric which is supplied to the instruments and turned on at the startup.
Filters were used in combination with appropriate beam splitters in the filter cube. For CC (cyan) images: D436/20 excitation (x), D480/40 emission (m) and 455DCLP beam splitter; for CY (FRET) images: D436/20x, D535/30m and 455DCLP beam splitter; for YY (yellow) images: the filters D500/20x, D535/30m and 515LP beam splitter. All filters were from Chroma. Images were acquired using a Hamamatsu CCD Orca-ER Camera with 4×4 binning. Exposure times were 1 sec for each CC or CY image. Images were acquired and captured of the FRET signal every 15 sec for a total of 4 or 6 minutes and stored as 12-bit gray scale image-stacks using MetaVue/Metamorph software (Universal Imaging Corporation, 402 Boot Road, Downington, Pa. 19335). Both camera and filter wheels were controlled peripherally using MetaVue from a Dell Computer Workstation (Dell Computer, Houston, Tex.) Images were processed using Metamorph (Universal Imaging) in a Dell Computer Workstation. […] Average intensities in these regions were measured. Maximum intensity per pixel in selected regions were ensured to be lower than the maximum value on the available 12-bit gray scale (4095). Ratios of the CY over CC intensities from these regions were plotted to obtain the FRET profiles.
Agonist concentration dependence of the decrease in the FRET signal: Images (emission spectra) of live functional biosensor cells were captured and recorded as above for about six minutes. […] The regression lines were drawn using GraphPad (Prizm). The percentage of activation by submaximal doses was determined by the formula 100(Rx−Ro)/(Rm−Ro). Rx, Ro and Rm are the numerical values of the respective regression lines at the 210 second elapsed time point where Ro was the initial baseline, Rx was the submaximal response and Rm was the maximal response.

[2] = tested on: human adenosine receptors; assay: G protein biosensor FRET profile in biosensor cells expressing adenosine receptor; conditions: 50 μM
Method: as §1
as §2, with “(Sutter Instrument Company, 51 Digital Drive, Novato, Calif. 94949). In an aspect, power to operate instruments such as the microscope, pumps, motor(s), camera(s), computer(s) control system is supplied by 110 volt electric which is supplied to the instruments and turned on at the startup.” left out
(§3) Filters were used in combination with appropriate beam splitters in the filter cube. […] Average intensities in these regions were measured. […]

[3] = biological target: T1, M2 muscarinic acetylcholine receptors; assay: G protein biosensor FRET (CY/CC) imaging in CHO cells stably expressing M2 receptor; conditions: biosensor with CFP tagged α, YFP tagged γ, untagged β subunit
[4] = biological target: T2, human serotonin receptors (Type 1A) (Homo sapiens, UniProt P08908); assay: G protein biosensor FRET profile in biosensor cells expressing serotonin receptors
T2 construct: expressed in transfected cells; host or cells: Biosensor cells
T2 sequence (P08908 1-422): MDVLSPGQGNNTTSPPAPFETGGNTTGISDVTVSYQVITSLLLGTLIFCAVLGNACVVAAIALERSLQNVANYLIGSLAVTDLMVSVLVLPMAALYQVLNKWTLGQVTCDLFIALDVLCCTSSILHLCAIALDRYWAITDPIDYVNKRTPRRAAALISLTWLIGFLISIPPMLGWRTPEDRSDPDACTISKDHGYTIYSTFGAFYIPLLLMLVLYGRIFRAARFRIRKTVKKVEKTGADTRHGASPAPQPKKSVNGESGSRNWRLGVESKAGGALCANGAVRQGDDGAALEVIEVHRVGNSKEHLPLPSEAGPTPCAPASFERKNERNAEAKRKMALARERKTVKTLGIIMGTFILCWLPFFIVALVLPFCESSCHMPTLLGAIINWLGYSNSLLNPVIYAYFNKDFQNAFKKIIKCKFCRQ
Method: as §1
as §2, with “(Sutter Instrument Company, 51 Digital Drive, Novato, Calif. 94949). In an aspect, power to operate instruments such as the microscope, pumps, motor(s), camera(s), computer(s) control system is supplied by 110 volt electric which is supplied to the instruments and turned on at the startup.” left out
as §3

Row | Structure (SMILES) | FRET signal intensity on addition of the molecule [1] | FRET signal intensity on repeated addition of agonist and antagonist [1] | CC emission intensity [1] | CY emission intensity [1] | also measured
1 | CC(C)NCC(O)c1ccc(O)c(O)c1 (centres unmarked) [Isoproterenol, isoproterenol] | no effect on FRET signal intensity | – | – | – | –
2 | OC[C@H]1O[C@@H](n2cnc3c(NC4CCCCC4)ncnc32)[C@H](O)[C@@H]1O [adenosine N6-Cyclohexyl] | – | – | – | – | FRET signal intensity on addition of agonist [2]: decreased the FRET signal intensity significantly
3 | CN1[C@@H]2CC[C@H]1C[C@@H](OC(=O)C(CO)c1ccccc1)C2 (some centres unmarked) [atropine] | – | increases | CC emission intensity decreases | increases | carbachol-induced loss of FRET after pretreatment with antagonist ([1]; atropine 10 μM present, carbachol 100 μM added): no longer elicited the loss of FRET; FRET signal intensity on addition of antagonist after agonist ([1]; atropine 100 μM after carbachol 100 μM): FRET signal intensity increases strikingly
4 | C[N+](C)(C)CCOC(N)=O [carbachol] | reduced FRET signal intensity; also recorded: FRET signal intensity decreases | decreases | CC emission intensity increases | CY emission intensity decreases | FRET signal intensity on addition of agonist [3]: decrease in FRET signal intensity
5 | CC(C)(C)NCC(O)COc1cccc2[nH]c(C#N)cc12 (centres unmarked) [cyanopindolol] | – | – | – | – | FRET signal intensity on addition of antagonist after agonist ([4]; cyanopindolol 150 μM after serotonin 20 μM): increase in the FRET signal intensity
6 | NCCc1c[nH]c2ccc(O)cc12 [serotonin] | – | – | – | – | FRET signal intensity on addition of agonist ([4]; 20 μM): decreased the FRET signal intensity significantly; also recorded: decrease in the FRET signal intensity
